Experimental data: publication PMC7725692 (Frontiers in Molecular Neuroscience, 2020)

Key:
[1] = molecular target: T1, Nam-ACR-16 (Necator americanus, UniProt A0A7M1S0Z8); test: two-electrode voltage clamp in Xenopus oocytes, agonist concentration-response; type: cell-based; set-up: full-length homopentameric receptor, co-expressed with Hco-RIC-3 in Xenopus laevis oocytes
T1 sequence (A0A7M1S0Z8 22-498): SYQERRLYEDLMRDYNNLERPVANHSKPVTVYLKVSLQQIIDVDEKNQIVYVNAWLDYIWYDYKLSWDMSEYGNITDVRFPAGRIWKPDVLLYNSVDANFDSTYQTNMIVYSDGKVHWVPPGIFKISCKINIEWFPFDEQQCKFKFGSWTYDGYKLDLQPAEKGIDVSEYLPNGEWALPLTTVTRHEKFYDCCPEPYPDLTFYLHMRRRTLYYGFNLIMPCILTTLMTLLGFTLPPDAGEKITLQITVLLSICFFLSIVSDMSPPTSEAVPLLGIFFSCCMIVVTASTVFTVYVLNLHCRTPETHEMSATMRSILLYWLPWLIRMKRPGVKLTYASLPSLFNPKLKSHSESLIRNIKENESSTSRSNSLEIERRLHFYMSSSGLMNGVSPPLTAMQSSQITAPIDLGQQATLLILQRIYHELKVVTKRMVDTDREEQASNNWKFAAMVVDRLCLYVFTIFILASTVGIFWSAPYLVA

[2] = molecular target: T1, Nam-ACR-16; test: cell-based; details: read-out: % inhibition at 500 μM
[3] = molecular target: T2, Ace-ACR-16 (Ancylostoma ceylanicum, UniProt A0A7M1S071); test: cell-based; details: read-out: % inhibition at 500 μM
T2 sequence (A0A7M1S071 22-498): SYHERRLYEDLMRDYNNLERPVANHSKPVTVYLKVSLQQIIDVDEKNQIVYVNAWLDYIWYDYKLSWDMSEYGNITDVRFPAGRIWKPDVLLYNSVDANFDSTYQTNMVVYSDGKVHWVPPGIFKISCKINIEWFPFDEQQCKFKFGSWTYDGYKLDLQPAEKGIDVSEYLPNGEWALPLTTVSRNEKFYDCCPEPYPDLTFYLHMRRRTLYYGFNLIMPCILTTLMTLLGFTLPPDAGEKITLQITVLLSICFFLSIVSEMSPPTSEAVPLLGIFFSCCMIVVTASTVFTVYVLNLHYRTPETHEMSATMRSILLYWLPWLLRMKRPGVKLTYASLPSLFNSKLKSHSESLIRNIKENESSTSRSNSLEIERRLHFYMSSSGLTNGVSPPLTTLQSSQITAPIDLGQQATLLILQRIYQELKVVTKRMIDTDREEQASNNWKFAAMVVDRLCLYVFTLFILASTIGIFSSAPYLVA

[4] = molecular target: T2, Ace-ACR-16; test: two-electrode voltage clamp in Xenopus oocytes, agonist concentration-response (full agonist); type: cell-based; set-up: full-length homopentameric receptor, co-expressed with Hco-RIC-3 in Xenopus laevis oocytes
[5] = molecular target: T1, Nam-ACR-16; test: two-electrode voltage clamp in Xenopus oocytes, agonist concentration-response (weak partial agonist); type: cell-based; set-up: full-length homopentameric receptor, co-expressed with Hco-RIC-3 in Xenopus laevis oocytes
[6] = molecular target: T2, Ace-ACR-16; test: cell-based; set-up: full-length homopentameric receptor, co-expressed with Hco-RIC-3 in Xenopus laevis oocytes; details: read-out: % maximal acetylcholine response

Q: `CC(=O)OCC[N+](C)(C)C` [acetylcholine] was tested. Which EC50 [1] did it give?
A: Its EC50 is 170 ± 19.2 µM.

Q: With `c1ccc([C@H]2CN3CCSC3=N2)cc1` [levamisole] as the molecule, how does the inhibition at 500 µM [2] read?
A: The inhibition at 500 µM was 79.5 ± 7.7%.

Q: And the inhibition at 500 µM [3]?
A: The inhibition at 500 µM was 65.1 ± 14.3%.

Q: Which EC50 [4] does the source give for `CN1CCC[C@H]1c1cccnc1` [nicotine] here?
A: Its EC50 is 24.4 ± 2.89 µM.

Q: What about the EC50 [5] of the same molecule?
A: Its EC50 is 598 ± 59.1 µM.

Q: For `CN1CCCN=C1/C=C/c1cccc(O)c1` [oxantel], which Emax [6] is on record?
A: The Emax was 15.6 ± 9.6%.

Q: For `CN1CCCN=C1/C=C/c1cccs1` [pyrantel], which Emax [6] is on record?
A: The Emax was 12.5 ± 7.5%.
